According to US10005756B2, “Pyrrolidinone derivatives as MetAP-2 inhibitors” (Merck Patent GmbH, priority 2014, dated 2018):

System: human umbilical vein endothelial cells (HUVEC)
Test: HUVEC proliferation quantified by BrdU incorporation
Type: cell-based
Settings: HUVEC, read-out: IC50 HUVEC
Experimental: Determination of the Proliferation Inhibition by Inhibitors of Methionine Aminopeptidase 2 in the BrdU Proliferation Test (Cellular Assay)
After detachment of the cells by means of trypsin/EDTA, the number of living cells is determined, and the cells are sown in a density of 1000 cells per cavity in a total volume of 175 μl (cavities are coated in advance either with supplemented culture medium for 1-2 hours at 37° C. or with 1.5% gelatine for 0.5-2 hours at 37° C.). After cultivation for 24 hours, the test substances are added in various concentrations (for example final concentrations 30 μM to 0.03 nM in 10-fold dilution steps) and a volume of 25 μl. The DMSO concentration is kept constant at 0.3%. […] To this end, the cells are treated with a fixative for 30 min at room temperature and subsequently incubated with a peroxidase-labelled anti-BrdU antibody (diluted 1:100 in antibody dilution buffer) for 60 min at room temperature. […] The colour development is stopped after 15 min by addition of 25 μl of a 1M sulfuric acid solution. […] The controls used are cavities containing DMSO-treated cells (100% control) or empty cavities (blank value).
HUVEC Proliferation Quantified by BrdU Incorporation
HUVEC Means Human Umbilical Vein Endothelial Cells
HUVEC proliferation is measured after a 5 day incubation period using incorporation of BrdU as a measure of cell cycle activity. Cells are incubated in the presence or absence of test substances. During the last 18 to 24 hours of the incubation period BrdU is added to the medium. BrdU is incorporated into the DNA as the cells progress through S-phase (DNA synthesis) of the cell cycle. The cells are fixed and the amount of BrdU incorporated can be quantified using a commercial ELISA for detection of BrdU.
HUVEC are routinely cultured in EGM MV medium and used between passages 3 and 8.
All substances are run in triplicate.
Reference compounds are run in every assay.
Data is analyzed using the Assay Explorer program. Briefly, the blank is subtracted from all values, the triplicates are averaged and normalized to the untreated. EC50 is determined from a 4-parameter general sigmoidal curve (Hill fit y=(s0−slnf)/(1+(x/AC50)^nHill)+slnf) in Assay Explorer, Symyx). The processed data (EC50 or % Effect if no EC50 if reached, Efficacy) is uploaded directly from Assay Explorer to the MSRDB.

SMILES	IC50
C[C@@H](c1ccccc1)N1CC[C@](O)(C(=O)NCc2cc(F)cc(Cl)c2)C1=O [Compound A3]	730 nM
NCCCCNC(=O)c1cc2cc(N3CC[C@](O)(C(=O)NCc4cc(F)cc(Cl)c4)C3=O)ccc2[nH]1 [Compound A35]	51 nM
O=C(NCc1cc(F)cc(Cl)c1)[C@@]1(O)CCN(c2cnc(Cl)c(F)c2)C1=O [Compound A4]	11000 nM
